Test results taken from article PMC7096397, “Improving the drug-likeness of inspiring natural products - evaluation of the antiparasitic activity against Trypanosoma cruzi through semi-synthetic and simplified analogues of licarin A” (Scientific Reports, 2020).
Where two headings read alike, the source gives them in different places.

How the values were obtained:
[1] = tested on: T. cruzi (Y strain) trypomastigotes; assay: Anti-trypomastigote assay (resazurin viability); type: cell-based, Trypanosoma cruzi; details: for IC50: read-out: IC50 trypo
Protocol: (§1) The cells and parasites were kept at 37 °C in a humidified atmosphere containing 5% CO2.
Benznidazole was used as the standard drug. The optical density was determined in FilterMax F5 (Molecular Devices) at 570 nm[38].
(§2) IC50 and CC50 values were calculated using a sigmoid dose-response curves in Graph–Pad Prism 5.0 software (GraphPad Software - San Diego, CA, USA). For the mechanism of action studies one-way ANOVA (Turkey’s Multiple Comparison test) was used for significance (p < 0.05). The assays were repeated at least twice and the samples were tested in duplicate.

[2] = PAMPA intestinal model (GIT); type: in vitro ADME
Protocol: Intestinal permeability of tested compounds was estimated applying the PAMPA model previously developed and validated. Briefly, stock solutions were prepared in dimethyl sulfoxide (DMSO) at the concentrations of 10 mM and then diluted with Tris buffer to give the final concentration donor solution at 300 µM and 5% DMSO. The assay procedure was initiated by filling each well of the microtiter plate (MultiScreen, catalogue no. MATRNPS50, Millipore Corporation, Bedford, MA, USA) with 300 μL of each donor drug solution. Carefully, and avoiding the pipette tip contact with the filter, the hydrophobic filter (0.45 μm) of each acceptor well of the 96-well microfilter plate (MultiScreen-IP, catalogue no. MAIPNTR10, Millipore Corporation, Bedford, MA, USA) was adsorbed with 6 μL of the artificial lipid solution which was composed of 2% of L-α-phosphatidylcholine from soybean dissolved, by sonication, in n-dodecane. Immediately after this application, 150 μL of Tris buffer containing 5% DMSO was added to the receiving well. The receiving well was mounted on the donor plate, keeping the underside of the membrane in contact with the donor solution. The assembled donor–acceptor plates were incubated under constant stirring (3 g) at 25 °C for approximately 16 h. Subsequently, the quantity of each compound presented at the receptor solution (150 μL) was determined by UV/VIS spectrophotometrically.

[3] = tested on: T. cruzi intracellular amastigotes; assay: Anti-amastigote assay in infected peritoneal macrophages (infection index); type: cell-based, Trypanosoma cruzi; details: 48 h, read-out: IC50 Ama
Protocol: as §1
The cells were plated on a 16-well chamber slide – NUNC (Thermo Fisher Scientific) at 1 × 10^5 cells/well and incubated for 24 h at 37 °C in a 5% CO2 humidified incubator. […] Tested compounds were subsequently incubated with infected macrophages for 48 h at 37 °C (5% CO2 humidified incubator) in different nontoxic concentrations. Benznidazole was used as standard drug. At the end of the assay, slides were fixed with MeOH and stained with Giemsa, counted under a light microscope (EVOS M5000, Thermo, USA) and IC50 values were determined by the infection index.
as §2

PAMPA-BBB model = type: in vitro ADME
Protocol: The methodology herein applied was similar to that described in the previous section, however with the purpose of assessing the permeability of the compounds through the blood brain barrier (BBB). Thus, stock solutions (10 mM) of each test compound were prepared in DMSO and diluted with phosphate buffered saline (PBS) at pH 7.4. The final concentration of donor solutions was 300 μM and DMSO of 5%. Artificial membrane lipid solutions were prepared daily by dissolving, in n-dodecane, the porcine brain lipid extracted as described[40] at the final concentration of 2% (m/v). PAMPA procedure was similar to that described in the previous section although, in PAMPA-BBB, the donor and acceptor solutions were prepared using phosphate buffer saline (PBS) at pH 7.4 and the Papp was obtained through the equation previously reported.

[4] = Cytotoxicity against mammalian cells (MTT); type: cell-based, Murine; details: mouse, NCTC clone L929 cells
Protocol: Rhesus monkey kidney cells (LLC-MK2-ATCC CCL 7) were used for the maintenance of trypomastigotes of T. cruzi (Y strain) using RPMI-1640 medium supplemented with 2% fetal bovine serum (FBS). The cells and parasites were kept at 37 °C in a humidified atmosphere containing 5% CO2. Peritoneal macrophages, used in the experiments of anti-amastigote assay, were obtained by washing the peritoneal cavity of BALB/c mice, with RPMI-1640 medium supplemented with 10% FBS and kept at 37 °C in a 5% CO2 humidified incubator. Murine conjunctive cells (NCTC clone 929, ATCC) and LLC-MK2 were kept in RPMI-1640 supplemented with 10% FBS at the same conditions described above.
NCTC cells-clone L929 (6 × 10^4 cells/well) were seeded and incubated with tested compounds (200–1.56 µM) for 48 h at 37 °C in a 5% CO2 humidified incubator. Cytotoxic concentration (CC50) was determined by MTT assay. Optical density was determined in FilterMax F5 (Molecular Devices) at 570 nm. Selectivity Index (SI) was determined using the following ratio: CC50 against NCTC cells/IC50 against parasites.
as §2

T. cruzi trypomastigotes [5] = assay: Reactive oxygen species (ROS) generation, H2DCFDA probe; type: cell-based, Trypanosoma cruzi; details: at IC50, 1 h of treatment
Protocol: After, H2DCFDA probe (Molecular Probes) was added (5 µM) and incubated by 15 min[44]. The fluorescence intensity was measure using a fluorimetric microplate reader (FilterMax F5 Multi-Mode, Molecular Devices) with excitation and emission wavelengths of 485 and 520 nm, respectively. Azide (10 mM) was used as positive control and untreated parasites were used as negative control.

T. cruzi trypomastigotes [6] = assay: Mitochondrial membrane potential, JC-1 flow cytometry; type: cell-based, Trypanosoma cruzi; details: at IC50, 2 h
Protocol: The ΔΨm were analyzed by flow cytometry (Attune NxT flow cytometer - ThermoFisher) with the probe 5,5′,6,6′-tetrachloro-1,1′,3,3′-tetraethylbenzimidazole carbocyanide iodide (JC-1, ThermoFisher). The ratio between red/green fluorescence intensities (BL-2/BL-1; 590 nm/530 nm) were calculated[45],[46]. […] The parasites were incubated in the dark for 10 min at 37 °C and washed in HBSS + Glu to eliminate the non-internalized dye. As internal controls of the assay were used: (i) non-treated cells and (ii) trypomastigotes treated with 100 μM CCCP.

[7] = Trypanosoma cruzi, T. cruzi trypomastigotes, 24 h incubation, resazurin
[8] = PAMPA intestinal model, 300 µM donor, Tris buffer, 25 °C, 16 h, read-out: Papp GIT
[9] = Trypanosoma cruzi, Peritoneal macrophage, in Mus musculus, intracellular amastigotes in BALB/c peritoneal macrophages
[10] = PAMPA-BBB model, 300 µM donor, PBS pH 7.4, read-out: Papp BBB

| Molecule | IC50 [1, 7] [µM] | IC50 [3, 9] [µM] | Papp at 16 h, 300 µM ([2]; PAMPA) [×10⁻⁶ cm/s] | Papp at 16 h, 300 µM (PAMPA-BBB model; PAMPA, pH 7.4) [×10⁻⁶ cm/s] | CC50 at 48 h [4] [µM] | also measured |
| --- | --- | --- | --- | --- | --- | --- |
| COc1ccc(CO)cc1OC [3a, (3,4-dimethoxyphenyl)methanol] | > 100 | > 100 |  |  | > 200 | Papp at 16 h, 300 µM [2, 8]: 2.22 ×10⁻⁶ cm/s; Papp at 16 h, 300 µM (PAMPA-BBB model; [10]): 2.18 ×10⁻⁶ cm/s |
| O=C(Cn1ccnc1[N+](=O)[O-])NCc1ccccc1 [Bnz, benznidazole, reference compound] | 5.5 ± 0.9 | 18.7 ± 2.6 |  |  | > 200 |  |
| C=CCOc1ccc([C@H]2Oc3c(OC)cc(/C=C/C)cc3[C@@H]2C)cc1OC [1c, (2S,3 S)-2-(4-allyloxy-3-methoxy-phenyl)-7-methoxy-3-methyl-5-[(E)-prop-1-enyl]-2,3-dihydrobenzofuran] | > 100 | > 100 | 0.43 | 0.24 | > 200 |  |
| C=CCOc1ccc(/C=C/C)cc1OC [4c, 1-allyloxy-2-methoxy-4-[(E)-prop-1-enyl]benzene] | > 100 | > 100 | 0.13 | 0.2 | > 200 | anti-T. cruzi activity (in words) ([1]; Table 1 assays): did not display activity |
| C=CCc1ccc(OC)c(OC)c1 [5a, 4-allyl-1,2-dimethoxy-benzene] |  |  |  |  | > 200 | IC50 ([1]; Trypanosoma cruzi, 24 h): > 100 µM; Papp at 16 h, 300 µM [2, 8]: 2.35 ×10⁻⁶ cm/s; IC50 ([3]; Trypanosoma cruzi, Peritoneal macrophage, in Mus musculus): > 100 µM; Papp at 16 h, 300 µM (PAMPA-BBB model; [10]): 1.56 ×10⁻⁶ cm/s |
| C/C=C/c1cc(OC)c2c(c1)[C@H](C)[C@@H](c1ccc(OC(C)=O)c(OC)c1)O2 [1b, [2-methoxy-4-[(2S,3 S)-7-methoxy-3-methyl-5-[(E)-prop-1-enyl]-2,3-dihydrobenzofuran-2-yl]phenyl] acetate] | 17.9 ± 2.9 | > 100 | 1.02 | 0.34 | 67.2 ± 24.6 |  |
| COc1cc(C=O)ccc1OC(C)=O [2b, (4-formyl-2-methoxy-phenyl) acetate] | > 100 | 5.6 ± 0.3 | 17.4 | 4.7 | > 200 | fraction unbound at 16 h, 300 µM [2]: < 0.1 |
| COc1cc(C=O)ccc1O [compound 2, vanillin] | > 100 | 5.5 ± 0.6 |  |  | > 200 | Papp at 16 h, 300 µM [2, 8]: 1.41 ×10⁻⁶ cm/s; Papp at 16 h, 300 µM (PAMPA-BBB model; [10]): 6.15 ×10⁻⁶ cm/s |
| C/C=C/c1cc(OC)c2c(c1)[C@H](C)[C@@H](c1ccc(OC)c(OC)c1)O2 [1a, (2S,3 S)-2-(3,4-dimethoxyphenyl)-7-methoxy-3-methyl-5-[(E)-prop-1-enyl]-2,3-dihydrobenzo-furan] | 28 ± 10.2 | > 100 | 0.42 | 4.26 | > 200 |  |
| C/C=C/c1ccc(OC(C)=O)c(OC)c1 [4b, [2-methoxy-4-[(E)-prop-1-enyl]phenyl] acetate] | 54.6 ± 10.2 | > 100 | 15 | 1.32 | > 200 | fraction unbound at 16 h, 300 µM [2]: < 0.1 |
| isoeugenol [compound 4] |  |  |  |  |  | IC50 ([1]; T. cruzi trypomastigotes, 24 h incubation, resazurin): 50.7 ± 17.4 µM; IC50 ([3]; intracellular amastigotes in BALB/c peritoneal macrophages): > 100 µM |
| C/C=C/c1cc(OC)c2c(c1)[C@H](C)[C@@H](c1ccc(O)c(OC)c1)O2 [compound 1, Licarin A] | 54.3 ± 8.9 | > 100 | 0.85 | 2.37 | > 200 |  |

Second part, led by results:

| IC50 [1, 7] [µM] | IC50 [3, 9] [µM] | Papp at 16 h, 300 µM ([2]; PAMPA) [×10⁻⁶ cm/s] | Papp at 16 h, 300 µM (PAMPA-BBB model; PAMPA, pH 7.4) [×10⁻⁶ cm/s] | Molecule | CC50 at 48 h [4] [µM] | also measured |
| --- | --- | --- | --- | --- | --- | --- |
| 21.2 ± 3.7 | 10.4 ± 0.9 | 1.2 | 0.74 | C=CCc1cc(/C=C/C)cc(OC)c1O [4d, 2-allyl-6-methoxy-4-[(E)-prop-1-enyl]phenol] | > 200 |  |
| > 100 | > 100 | 2.81 | 2.28 | C=CCc1ccc(OC(C)=O)c(OC)c1 [5b, (4-allyl-2-methoxy-phenyl) acetate] | > 200 |  |
| > 100 | > 100 | 0.18 | 0.64 | COc1cc(CO)ccc1O [compound 3, vanillyl alcohol] | > 200 |  |
| > 100 | > 100 | 1.21 | 0.32 | C=CCOc1ccc(CC=C)cc1OC [5c, 4-allyl-1-allyloxy-2-methoxy-benzene] | > 200 |  |
| > 100 | > 100 | 1.6 | 5.35 | C=CCOc1ccc(C=O)cc1OC [2c, 4-allyloxy-3-methoxy-benzaldehyde] | > 200 |  |
| > 100 | > 100 | 1.57 | 1.25 | C=CCc1cc(C=O)cc(OC)c1O [2d, 3-allyl-4-hydroxy-5-methoxy-benzaldehyde] | > 200 |  |
| > 100 | > 100 | 1.9 | 4.74 | C=CCOc1ccc(CO)cc1OC [3c, (4-allyloxy-3-methoxy-phenyl)methanol] | > 200 |  |
| > 100 | > 100 | 0.65 | 0.32 | C=CCc1cc(CC=C)c(O)c(OC)c1 [5d, 2,4-diallyl-6-methoxy-phenol] | > 200 |  |
| > 100 | > 100 | 3.47 | 3.47 | C=CCc1cc(CO)cc(OC)c1O [3d, 2-allyl-4-(hydroxymethyl)-6-methoxy-phenol] | > 200 | ROS generation (T. cruzi trypomastigotes [5]): increased the reactive oxygen species (ROS) levels; mitochondrial membrane potential (T. cruzi trypomastigotes [6]): induced hyperpolarization of mitochondrial membrane potential |
